Measurements: ChEMBL document CHEMBL1128054, “The synthesis of pyrazolo[4,3-c]- and imidazo[4,5-c]-Aryl[e]fused pyridines as structural analogues of 4-aminonicotinoates” (Bioorg Med Chem Lett, 1995)
pIC50: −log10 of the molar value.

These compounds were tested against GABA-A receptor; anion channel (assay: Inhibition of [35S][…] (TBPS) binding to Gamma-aminobutyric acid receptor).
Format: protein-complex assay
A pIC50 of 5.70 was found for `CCCOC(=O)c1c(C)nc2c(c1N)c1ccccc1n2C` in this work.
A pIC50 of 5.20 was found for `Cc1nc2sc3c(c2c2ncn(CCC4CC4)c12)CCC1(C3)OCCO1` in this work.
A pIC50 of 6.11 was found for `C#CCOC(=O)c1c(C)nc2sc3c(c2c1N)CCC1(C3)OCCO1` in this work.
A pIC50 of 5.85 was found for `Cc1nc2sc3c(c2c(N)c1C(=O)OCc1ccccc1)CCC1(C3)OCCO1` in this work.
A pIC50 of 6.62 was found for `Cc1nc2sc3c(c2c(N)c1C(=O)OCCC1CC1)CCC1(C3)OCCO1` in this work.
A pIC50 of 5.05 was found for `Cc1nc2sc3c(c2c2ncn(CC4CC4)c12)CCC1(C3)OCCO1` in this work.
`Cc1[nH]c2sc3c(c2c2ncnc1-2)CCC1(C3)OCCO1` was tested, and the pIC50 was < 4.00.
A pIC50 of 5.70 was found for `CCOC(=O)c1c(C)nc2c(c1N)c1ccccc1n2C` in this work.
A pIC50 of 5.70 was found for `COC(=O)c1c(C)nc2c(c1N)c1ccccc1n2C` in this work.
A pIC50 of 5.57 was found for `Cc1nc2sc3c(c2c2ncn(CCc4ccc(Cl)cc4)c12)CCC1(C3)OCCO1` in this work.
With `Cc1nc2sc3c(c2c2nn(Cc4ccccc4)c(O)c12)CCC1(C3)OCCO1` the pIC50 was < 4.00.
A pIC50 of 6.06 was found for `Cc1nc2sc3c(c2c(N)c1C(=O)OCC1CC1)CCC1(C3)OCCO1` in this work.
A pIC50 of 6.51 was found for `Cc1nc2sc3c(c2c(N)c1C(=O)OCc1ccc(Cl)cc1)CCC1(C3)OCCO1` in this work.
A pIC50 of 4.79 was found for `CCOC(=O)c1c(C)nc2sc3c(c2c1N)CCC1(C3)OCCO1` in this work.
A pIC50 of 6.49 was found for `C#CCCOC(=O)c1c(C)nc2sc3c(c2c1N)CCC1(C3)OCCO1` in this work.
